Here are results for one substance from US20050102708A1, “Animal model simulating neurologic disease” (priority 2003, published 2005).

One assay concerns Long-Evans male rats. Description: Morris watermaze memory retention test. Format: in vivo, rat. Particulars: four week infusion into the left ventricle, tested at end of perfusion period. The text has this:
Inducing a Neurologic Disease in a Non-Human Animal. Animals: Long-Evans male rats weighing 300-325 grams were housed following a natural day-night cycle with food and water ad libitum.
Morris watermaze protocol: Before the surgery, the rats were trained on a standard Morris spatial navigation task in a black water tank (200 cm diameter). The water was rendered opaque by water-miscible non-toxic white paint (Crayola Inc.). The rats were placed in four different, randomly assigned, start positions and trained to find an invisible platform (20 cm diameter) at a fixed position in the middle of the water tank. The water temperature was about 24° C. A trial lasted until a rat found the platform or until 120 seconds elapsed. […] Rats were trained for four consecutive days, four trials a day, with 30 minutes between subsequent trials. Surgery procedures were performed on the fifth day. Rats were tested again for memory retention at the end of the four weeks-perfusion period.
Surgical procedure: Anesthetized rats (equitesin, 3 ml/kg, i.p.) were placed on a stereotaxic frame. Using the electrode micromanipulator, the outlet of an osmotic micropump (Durect Corp., Cupertino, Calif.) was implanted into the left ventricle following the coordinates D=3.4 mm, L=1.4 mm and AP=0.92 mm prior to the bregma. […] During the whole procedure, the body temperature was monitored and kept stable at 37° C. […]

Assay [1] has as its system Hyperphosphorylated Tau protein. As to the kind of experiment: ELISA of hyperphosphorylated Tau protein in CSF. Format: in vivo, rat. Particulars: rats, four week infusion into the left ventricle. The protocol: Surgical procedure: Anesthetized rats (equitesin, 3 ml/kg, i.p.) were placed on a stereotaxic frame. Using the electrode micromanipulator, the outlet of an osmotic micropump (Durect Corp., Cupertino, Calif.) was implanted into the left ventricle following the coordinates D=3.4 mm, L=1.4 mm and AP=0.92 mm prior to the bregma. The tank of the osmotic pump was implanted in a subcutaneous pocket in the midscapular area of the back of the rat. After surgery rats were put on a heating blanket for recovery. During the whole procedure, the body temperature was monitored and kept stable at 37° C.
Perfusion: Rats were divided into six groups regarding the composition of the solution contained in the osmotic micropump tank, as provided in Table 1. Group I served as the control group and received only artificial cerebrospinal fluid (“CSF”).
ELISA: Hyperphosphorylated Tau protein was measured in the CSF using the Elisa kit INNOTEST™ (Innogenetics, Belgium).
Background: ELISA stands for enzyme-linked immunosorbent assay.

In the case of β42-amyloid peptide [Aβ42], in the assay on Long-Evans male rats, the “memory impairment / latency to retrieve the platform in the Morris watermaze test” value is given as “not sufficient to induce memory impairment”. In assay [1], the “phosphorylated Tau protein in the CSF” value is recorded as “not sufficient to induce”.
